pIC50: −log10 of the molar value.
biological target: T1, human oxytocin receptor (Homo sapiens, UniProt P30559); experiment: Oxytocin binding in CHO cell membranes expressing human oxytocin receptors; details: 100 nM, [3H]oxytocin
T1 sequence (P30559 1-389): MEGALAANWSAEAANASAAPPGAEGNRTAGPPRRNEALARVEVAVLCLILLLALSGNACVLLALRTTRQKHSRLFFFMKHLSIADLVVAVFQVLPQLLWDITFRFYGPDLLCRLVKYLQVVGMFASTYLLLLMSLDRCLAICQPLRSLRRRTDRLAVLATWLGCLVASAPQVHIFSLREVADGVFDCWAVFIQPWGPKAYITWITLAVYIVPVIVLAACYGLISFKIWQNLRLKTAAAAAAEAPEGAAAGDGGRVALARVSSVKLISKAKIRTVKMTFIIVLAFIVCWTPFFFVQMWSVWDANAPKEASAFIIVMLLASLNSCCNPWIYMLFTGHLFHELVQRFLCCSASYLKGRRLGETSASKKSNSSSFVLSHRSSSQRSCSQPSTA
From the text: Oxytocin Binding in Chinese Hamster Ovary Cell Membranes Expressing Human Oxytocin Receptors
Chinese Hamster Ovary (CHO) cells stably transfected with the human oxytocin receptor (cf. Tanizawa et al., U.S. Pat. No. 5,466,584 (1995) to Rohto Pharmaceutical Co. Ltd., Osaka, Japan) were obtained from M. Thibonnier, Case Western Reserve University School of Medicine, Cleveland, Ohio. A. Passaging and Amplification of Cells: CHO cells transfected with the human oxytocin receptors obtained from M. Thibonnier (pcDNA3.1 vector) are allowed to grow to confluency (approx. >90%) in T-150 flasks under sterile conditions, in a cell culture medium of F-12 Nutrient Mixture (HAM) with L-glutamine (Gibco Cat. # 11765-054) containing 15 mM HEPES (Gibco Cat. # 15630-080), 1% antibiotic/antimycotic (add 5 mL 100×, Gibco Cat. # 15240-062 per 500 mL F-12), 400 μg/mL of Geneticin (add 4 mL of 50 mg/mL per 500 mL F-12) and 10% Fetal Bovine Serum (Qualified, heat inactivated, Gibco Cat. # 16140-063). The medium is removed by aspiration and the cells are washed with 10 mL of Hank's Balanced Salt solution (Gibco Cat. # 14175-095). The salt solution is removed by aspiration and the cells trypsinized with 5 mL of trypsin-EDTA (0.05% trypsin, 0.53 mM EDTA-4Na, Gibco Cat. # 25300-070) for 1 min The trypsin is removed by aspiration and the cells dislodged by tapping. Cell Culture medium (e.g. 30 mL for 1:30 split) is immediately added and mixed well to inactivate trypsin. 1 mL of detached cells is added to new culture flasks containing fresh Cell Culture medium (e.g. into 25 mL per T-150 flask), and mixed gently. The cells are incubated at 37° C. in 5% CO2. The medium is changed at 3 to 4 days interval (or as appropriate). The cells grow to confluency (approx. >75%–95%) within 7–8 days. All steps are done under sterile conditions. B. Membrane Preparation: The cells are washed twice gently with Hank's Balanced Salt solution (eg, use 10 mL per T-150 flask). The excess solution is removed and the cells bathed for 15–30 min. in an enzyme-free Cell Dissociation Buffer (eg, use 8 mL Hank's Based, Gibco Cat. # 13150-016 per T-150 flask) until cells are loosened. The contents are transferred to centrifuge tubes (50 mL size) kept in ice bath. All subsequent steps are done at 4° C. The tubes are centrifuged at 300×g for 15 min (1380 rpm on SORVAL, Model RT6000D, using rotor for 50 mL tubes). The supernatant is discarded and the cells suspended in homogenizing buffer (10 mM Tris-HCl containing 0.25 M sucrose and 1 mM EDTA, pH 7.4) ensuring that the volume of the buffer is about ten times the volume of the cell pellet. The cells are pooled into a centrifuge tube (50 mL) and homogenized with a Polytron at setting 6 for 10 sec. The homogenate is transferred into a Potter-Elvjehm homogenizer and homogenized with 3 strokes. The homogenate is centrifuged at 1500×g for 10 min at 4° C. (3100 rpm using SORVAL, model RT6000D, using rotor for 50 mL tubes). The pellet is discarded. The supernatant is centrifuged at 100,000×g for 60 min. at 4° C. (Beckman L8-80M ultracentrifuge; spin at 37,500 rpm with rotor type 70 Ti for 50 mL tubes; 38,000 rpm with type 80Ti for 15 mL tubes; or 35,800 rpm with rotor type 45Ti). The supernantant is discarded and the pellet suspended in 3 to 4 mL of Tris buffer (50 mM TRIS-HCl, pH 7.4). The protein content is estimated by the Bradford or Lowry method. The volume of the membrane suspension is adjusted with the membrane buffer (50 mM Tris-HCl containing 0.1% BSA and 0.1 mM PMSF) to give 3.0 mg/mL (or as appropriate) of protein. The membranes are aliquoted and stored at −70° C. C. Radioligand Binding Assay: In wells of a 96-well format microtiter plate, is added 90, 110 or 130 μL (to make up a final volume of 200 μL) of assay buffer containing 50 mM of Tris-HCl (pH 7.4), […], 1 mg % aprotinin, 1 mg % leupeptin, 2 mg % 1,10-phenanthroline, 10 mg % trypsin inhibitor, and 0.1 mM PMSF. […]

OT % inhibition at 100 nM [%] | SMILES
47 | Cc1ccccc1C(=O)NNC(=O)c1ccc2n1Cc1ccccc1N(C(=O)c1ccc(C3CCCCC3)cc1)C2 [Example 12, 10-(4-Cyclohexyl-benzoyl)-N′-(2-methylbenzoyl)-10,11-dihydro-5H-pyrrolo[2,1-c][1,4]benzodiazepine-3-carbonyl-hydrazide]
34 | O=C(O)c1ccc2n1Cc1ccccc1N(C(=O)c1ccc(C3CCCCC3)cc1)C2 [Example 22, 10-(4-Cyclohexyl-benzoyl)-10,11-dihydro-5H-pyrrolo[2,1 c][1,4]benzodiazepine-3-carboxylic acid]

The next lines start with the molecule.

SMILES | OT % inhibition at 100 nM [%]
O=C(NNC(=O)C1CC1)c1ccc2n1Cc1ccccc1N(C(=O)c1ccc(C3CCCCC3)cc1)C2 [Example 13, 10-(4-Cyclohexyl-benzoyl)-N′-(cyclopropylcarbonyl)-10,11-dihydro-5H-pyrrolo[2,1-c][1,4]benzodiazepine-3-carbonyl-hydrazide] | 73
Cc1cccc(C(=O)NNC(=O)c2ccc3n2Cc2ccccc2N(C(=O)c2ccc(C4CCCCC4)cc2)C3)c1 [Example 14, 10-(4-Cyclohexyl-benzoyl)-N′-(3-methyl-benzoyl)-10,11-dihydro-5H-pyrrolo[2,1-c][1,4]benzodiazepine-3-carbonyl-hydrazide] | 53

same assay, conditions: 100 nM, [3H]oxytocin, read-out: OT % inhibition at 100 nM

inhibition at 0.1 µM [%] | SMILES
14 | COC(=O)c1ccc2c(c1)N(C(=O)c1ccc(C3CCCCC3)cc1)Cc1ccc(C(=O)N3CCN(C)CC3)n1C2.Cl [Example 1, Methyl 10-(4-cyclohexylbenzoyl)-3-[(4-methyl-1-piperazinyl)carbonyl]-10,11-dihydro-5H-pyrrolo[2,1-c][1,4]benzodiazepine-8-carboxylate hydrochloride salt]
46 | CC(C)(C)c1ccc(C(=O)c2ccc3n2Cc2ccccc2N(C(=O)c2ccc(C4CCCCC4)cc2)C3)cc1 [Example 5, [4-(tert-Butyl)phenyl][10-(4-cyclohexyl-benzoyl)-10,11-dihydro-5H-pyrrolo[2,1-c][1,4]benzodiazepin-3-yl]methanone]
12 | O=C(c1ccc(C2CCCCC2)cc1)N1Cc2ccc(C(=O)C(Cl)(Cl)Cl)n2Cc2ccccc21 [Example 7, 2,2,2-Trichloro-1-[10-(4-cyclohexyl-benzoyl)-10,11-dihydro-5H-pyrrolo[2,1-c][1,4]benzodiazepin-3-yl]-1-ethanone]
43 | CN(C)/C=C/C(=O)c1ccc2n1Cc1ccccc1N(C(=O)c1ccc(C3CCCCC3)cc1)C2 [Example 20, (E)-1-[10-(4-Cyclohexyl-benzoyl)-10,11-dihydro-5H-pyrrolo[2,1-c][1,4]benzodiazepin-3-yl]-3-(dimethylamino)-2-propen-1-one]
68 | CN(N)C(=O)c1ccc2n1Cc1ccccc1N(C(=O)c1ccc(C3CCCCC3)cc1)C2 [Example 21, 10-(4-Cyclohexyl-benzoyl)-N-methyl-10,11-dihydro-5H-pyrrolo[2,1-c][1,4]benzodiazepine-3-carboxylic acid hydrazide]

Continued, molecule first:

SMILES | inhibition at 0.1 µM [%]
CN1CCN(C(=O)c2ccc3n2Cc2ccc(C(=O)O)cc2N(C(=O)c2ccc(C4CCCCC4)cc2)C3)CC1 [Example 3, 10-(4-Cyclohexyl-benzoyl)-3-[(4-methyl-1-piperazinyl)carbonyl]-10,11-dihydro-5H-pyrrolo[2,1-c][1,4]benzodiazepine-8-carboxylic acid] | -2
O=C(NNC(=O)c1ccc2n1Cc1ccccc1N(C(=O)c1ccc(C3CCCCC3)cc1)C2)Nc1ccccc1 [Example 15, 2-{[10-(4-Cyclohexyl-benzoyl)-10,11-dihydro-5H-pyrrolo[2,1-c][1,4]benzodiazepin-3-yl]carbonyl}-N-phenyl-1-hydrazinecarboxamide] | 16

same assay, conditions: [3H]oxytocin, value in parentheses, read-out: OT (IC50)

pIC50 | SMILES
7.28 | CC(=O)NNC(=O)c1ccc2n1Cc1ccccc1N(C(=O)c1ccc(C3CCCCC3)cc1)C2 [Example 11, N′-Acetyl-10-(4-cyclohexyl-benzoyl)-10,11-dihydro-5H-pyrrolo[2,1-c][1,4]benzodiazepine-3-carbonyl-hydrazide]
6.88 | NC(=O)c1ccc2n1Cc1ccccc1N(C(=O)c1ccc(C3CCCCC3)cc1)C2 [Example 16, 10-(4-Cyclohexyl-benzoyl)-10,11-dihydro-5H-pyrrolo[2,1-c][1,4]benzodiazepin-3-carboxamide]
7.29 | CN(C)/C=N/C(=O)c1ccc2n1Cc1ccccc1N(C(=O)c1ccc(C3CCCCC3)cc1)C2 [Example 17]
8.36 | C/C(=N\C(=O)c1ccc2n1Cc1ccccc1N(C(=O)c1ccc(C3CCCCC3)cc1)C2)N(C)C [Example 18]
7.74 | CN1CCN(C(=O)c2ccc3n2Cc2ccccc2N(C(=O)c2ccc(C4CCCCC4)cc2)C3)CC1 [Example 24, [10-(4-Cyclohexyl-benzoyl)-10,11-dihydro-5H-pyrrolo[2,1-c][1,4]benzodiazepin-3-yl](4-methyl-1-piperazinyl)-methanone]

Second part, the molecule before the results:

SMILES | pIC50
CC(=O)c1ccc2n1Cc1ccccc1N(C(=O)c1ccc(C3CCCCC3)cc1)C2 [Example 6, 1-[10-(4-Cyclohexyl-benzoyl)-10,11-dihydro-5H-pyrrolo[2,1-c][1,4]benzodiazepin-3-yl]-ethanone] | 6.98
NNC(=O)c1ccc2n1Cc1ccccc1N(C(=O)c1ccc(C3CCCCC3)cc1)C2 [Example 8, 10-(4-Cyclohexy-benzoyl)-10,11-dihydro-5H-pyrrolo[2,1-c][1,4]benzodiazepine-3-carboxylic acid hydrazide] | 6.90
CC(=NNC(=O)c1ccc2n1Cc1ccccc1N(C(=O)c1ccc(C3CCCCC3)cc1)C2)N(C)C [Example 9, N′-{[10-(4-Cyclohexyl-benzoyl)-10,11-dihydro-5H-pyrrolo[2,1-c][1,4]benzodiazepin-3-yl]carbonyl}-N,N-dimethylethanehydrazonamide] | 7.45
CN(C)C=NNC(=O)c1ccc2n1Cc1ccccc1N(C(=O)c1ccc(C3CCCCC3)cc1)C2 [Example 10, N′-{[10-(4-Cyclohexyl-benzoyl)-10,11-dihydro-5H-pyrrolo[2,1-c][1.4]benzodiazepin-3-yl]carbonyl}-N,N-dimethylhydrazonoformamide] | 7.12
CN(C)NC(=O)c1ccc2n1Cc1ccccc1N(C(=O)c1ccc(C3CCCCC3)cc1)C2 [Example 19, 10-(4-Cyclohexyl-benzoyl)-N′-N′-dimethyl-10,11-dihydro-5H-pyrrolo[2,1-c][1,4]benzodiazepine-3-carbohydrazide] | 6.89
O=C(c1ccc2n1Cc1ccccc1N(C(=O)c1ccc(C3CCCCC3)cc1)C2)N1CCN(c2ncccn2)CC1 [Example 23] | 7.38
